Source: patent US12577219B2, “Macrolide brefeldin a ester derivatives and use thereof” (OCEAN UNIVERSITY OF CHINA, priority 2019, dated 2026)
In brackets after ≈: the same amount, converted by molar mass.

What was measured:
Kunming breed mice = assay: Toxicity test after intraperitoneal administration to mice; assay type: in vivo; details: ip.; for Organ abnormality at anatomy: anatomy on the 14 th day; for Mental condition of the animals after administration: high and low doses; for Deaths after administration: high and low doses (BFA effective amount conversion), 14 d
Procedure: Objective: Observation of toxic effects of compounds after intraperitoneally administration (ip.) to mice
1) Agents: Compounds disclosed herein were formulated to a suitable concentration.
2) Animals: Kunming breed mice, weight 18-22 g, male. Provided by Jinan Pengyue Laboratory Animal Breeding Co., Ltd. Animal license number: SCXK (Shandong 20140007)
Method: Kunming breed mice, were randomly grouped by weight, 6 mice per group, namely normal control group, BFA high and low dose groups (100 mg/kg and 50 mg/kg, respectively), and high and low dose groups of some compounds disclosed herein (BFA effective amount conversion). […] After 14 d of continuous administration, all the animals were weighed, and the animals were executed to observe whether there were any abnormalities in the organs.

[1] = tested on: human breast cancer MCF7 cells; assay: Cell proliferation assay (CCK-8); assay type: cell-based; details: MCF7, 72 h
Excerpt: (§1) CCK-8 method: The CCK-8 method is a highly sensitive, non-radioactive colorimetric assay for the determination of the number of viable cells in cell proliferation or cytotoxicity assays. The orange formazan dye produced by the bioreduction of CCK-8 by intracellular dehydrogenase is soluble in the cell culture medium, and the amount of formazan dye produced is proportional to the number of living cells. The kit used in this method is the tetrazolium salt-WST-8 (2-(2-methoxy-4-nitrophenyl)-3-(4-nitrophenyl)-5-(2,4-disulfophenyl)-2H-tetrazolium monosodium salt) developed by Dojindo Chemical Research Institute (Dojindo), which is capable of being reduced to a water-soluble formazan dye in the presence of the electronic carrier 1-Methoxy PMS.
(§2) Human cervical cancer Hela cells, pancreatic cancer PANC-1cells, esophageal cancer Eca-109 cells, human leukemia K562 cells, human lung cancer A549 cells, human liver cancer HepG2 cells, human gastric cancer MKN-45 cells, human breast cancer MCF7 cells were cultured in DMEM medium containing 10% FBS (fetal bovine serum), 100 U/mL penicillin and 100 μg/ml streptomycin. Hepatocellular carcinoma cells Bel-7402 were cultured in RPMI-1640 medium containing 10% FBS (fetal bovine serum), 100 U/ml penicillin and 100 μg/ml streptomycin. All cells were placed in a cell culture incubator at 37° C. with 5% CO2. Cells fluid was changed every 3-5 days, and after 80% cell fusion, trypsin digestion and passaging were performed to keep the cells in good logarithmic growth phase.
(§3) All the samples to be tested were dissolved in DMSO.
(§4) Cells in logarithmic growth phase were inoculated in 96-well plates with 5000 cells/well respectively, and after 24 h of incubation, samples were added (final concentrations as shown in the table), and biplicate wells were set up for each sample. The amount of solvent of DMSO was not higher than 2%. After 72 h, 10 μL of CCK-8 solution was added to each well and incubated for 1.5˜3 h at 37° C. The OD value at 450 nm was measured on an plate reader. Inhibition rate (%)=(1−[(OD450 dosed well−OD450 blank well)/(OD450 control well−OD450 blank well)])×100%
(§5) The fitted IC50 values were calculated using the log (inhibitor) vs. response—Variable slop analysis method in GraphPad Prism software.

[2] = tested on: human lung cancer A549 cells; assay: Cell proliferation assay (CCK-8); assay type: cell-based; details: A549, 72 h
Excerpt: as §1, §2, §3, §4, §5

[3] = tested on: human liver cancer HepG2 cells; assay: Cell proliferation assay (CCK-8); assay type: cell-based; details: HepG2, 72 h
Excerpt: as §1, §2, §3, §4, §5

[4] = tested on: human gastric cancer MKN-45 cells; assay: Cell proliferation assay (CCK-8); assay type: cell-based; details: MKN-45, 72 h
Excerpt: as §1, §2, §3, §4, §5

[5] = tested on: Human cervical cancer Hela cells; assay: Cell proliferation assay (CCK-8); assay type: cell-based; details: 72 h
Excerpt: as §1, §2, §3, §4, §5

[6] = tested on: human leukemia K562 cells; assay: Cell proliferation assay (CCK-8); assay type: cell-based; details: K562, 72 h
Excerpt: as §1, §2, §3, §4, §5

[7] = tested on: pancreatic cancer PANC-1cells; assay: Cell proliferation assay (CCK-8); assay type: cell-based, human; details: PANC-1, 72 h
Excerpt: as §1, §2, §3, §4, §5

[8] = tested on: esophageal cancer Eca-109 cells; assay: Cell proliferation assay (CCK-8); assay type: cell-based, human; details: Eca-109, 72 h
Excerpt: as §1, §2, §3, §4, §5

physchem = details: 37 °C, thermodynamic from solid, x ± s, n = 3
Method: (§6) The term “solubility” refers to the mass of solute dissolved when a solid substance reaches saturation state in 100 g solvent at a certain temperature.
(§7) Methods: Excess BFA and the compounds disclosed herein were added to 10 mL of three solvents, methanol, acetone and 5% DMSO+95% H2O, respectively, and shaken on a shaker at 37° C. at 100 r/min for 24 h. After 24 h, the samples were centrifuged at 15,000 r/min for 15 min to remove the undissolved compounds. The supernatant was filtered using a 0.45 μm membrane filter. The supernatant was appropriately diluted with methanol and contents of the compounds were determined by HPLC method to calculate the solubility.

[9] = Solubility test (shaker 37° C., 24 h, HPLC); details: 37 °C, thermodynamic from solid
Method: as §6, §7

[10] = 5% DMSO + 95% H2O, aqueous with cosolvent or surfactant or cyclodextrin
[11] = acetone, organic solvent or mixture
[12] = methanol, organic solvent or mixture

IC50 ([1]; Homo sapiens) [nM] | IC50 ([2]; Homo sapiens) [µM] | IC50 ([3]; Homo sapiens) [nM] | IC50 ([4]; Homo sapiens) [µM] | IC50 ([5]; Homo sapiens) [µM] | IC50 ([6]; Homo sapiens) [nM] | IC50 ([7]; Homo sapiens) [nM] | IC50 ([8]; Homo sapiens) [µM] | Structure (SMILES) | Organ abnormality at anatomy (Kunming breed mice) | Mental condition of the animals after administration (Kunming breed mice) | Deaths after administration (Kunming breed mice) | further results
– | – | – | – | – | – | – | – | C[C@H]1CCC/C=C/[C@@H]2C[C@H](OC(=O)/C=C/c3ccc(N(C)C)cc3)C[C@H]2[C@H](OC(=O)/C=C/c2ccc(N(C)C)cc2)/C=C/C(=O)O1 [Compound 10c, 4,7-O-bis(4-dimethylaminocinnamic acid)acyl BFA] | no significant abnormality in all organs | good mental condition | no deaths | –
– | – | – | – | – | – | – | – | C[C@H]1CCC/C=C/[C@@H]2C[C@H](OC(=O)/C=C/c3cccnc3)C[C@H]2[C@H](O)/C=C/C(=O)O1 [Compound 16a, 7-O-(3-(pyridine-3-yl)acrylic acid)acyl BFA] | no significant abnormality in all organs | good mental condition | no deaths | –
– | – | – | – | – | – | – | – | C[C@H]1CCC/C=C/[C@@H]2C[C@H](O)C[C@H]2[C@H](OC(=O)/C=C/c2cccnc2)/C=C/C(=O)O1 [Compound 16b] | no significant abnormality in all organs | good mental condition | no deaths | –
– | – | – | – | – | – | – | – | C[C@H]1CCC/C=C/[C@@H]2C[C@H](OC(=O)/C=C/c3cccnc3)C[C@H]2[C@H](OC(=O)/C=C/c2cccnc2)/C=C/C(=O)O1 [Compound 16c] | no significant abnormality in all organs | good mental condition | no deaths | –
– | – | – | – | – | – | – | – | C[C@H]1CCC/C=C/[C@@H]2C[C@H](OC(=O)/C=C/c3cnc4ccccc4c3)C[C@H]2[C@H](OC(=O)/C=C/c2cnc3ccccc3c2)/C=C/C(=O)O1 [Compound 17c] | – | – | – | IC50 [1]: 100 to 1000 nM; IC50 [2]: 1 to 10 µM; IC50 [3]: 100 to 1000 nM; IC50 [4]: 1 to 10 µM; IC50 [5]: 1 to 10 µM; IC50 [6]: 100 to 1000 nM; IC50 [7]: 100 to 1000 nM; IC50 [8]: 1 to 10 µM
100 to 1000 | 1 to 10 | 1000 to 10000 | 1 to 10 | 1 to 10 | 100 to 1000 | 100 to 1000 | 1 to 10 | C[C@H]1CCC/C=C/[C@@H]2C[C@H](O)C[C@H]2[C@H](OC(=O)/C=C/c2ccccc2)/C=C/C(=O)O1 [Compound B] | – | – | – | solubility at 24 h [9, 10]: 220 ± 160 µg/mL; solubility at 24 h [9, 11]: 9480 ± 3230 µg/mL (≈ 23.1 mM); solubility at 24 h [9, 12]: 9410 ± 1510 µg/mL (≈ 22.9 mM)
1000 to 10000 | 1 to 10 | 1000 to 10000 | 1 to 10 | 1 to 10 | 1000 to 10000 | 1000 to 10000 | 1 to 10 | C[C@H]1CCC/C=C/[C@@H]2C[C@H](OC(=O)/C=C/c3ccccc3)C[C@H]2[C@H](OC(=O)/C=C/c2ccccc2)/C=C/C(=O)O1 [Compound C] | – | – | – | solubility at 24 h [9, 10]: 100 ± 230 µg/mL; solubility at 24 h [9, 11]: 5360 ± 3130 µg/mL (≈ 9.91 mM); solubility at 24 h [9, 12]: 5300 ± 2510 µg/mL (≈ 9.8 mM)

Structure (SMILES) | IC50 ([1]; Homo sapiens) [nM] | IC50 ([2]; Homo sapiens) [µM] | IC50 ([3]; Homo sapiens) [nM] | IC50 ([4]; Homo sapiens) [µM] | IC50 ([5]; Homo sapiens) [µM] | IC50 ([6]; Homo sapiens) [nM] | IC50 ([7]; Homo sapiens) [nM] | IC50 ([8]; Homo sapiens) [µM] | Organ abnormality at anatomy (Kunming breed mice) | Mental condition of the animals after administration (Kunming breed mice) | Deaths after administration (Kunming breed mice) | further results
C[C@H]1CCC/C=C/[C@@H]2C[C@H](OC(=O)/C=C/c3ccccc3)C[C@H]2[C@H](O)/C=C/C(=O)O1 [Compound A] | 100 to 1000 | 1 to 10 | 1000 to 10000 | 1 to 10 | 1 to 10 | 100 to 1000 | 100 to 1000 | 1 to 10 | – | – | – | solubility at 24 h (physchem; aqueous with cosolvent or surfactant or cyclodextrin, 5% DMSO + 95% H2O): 220 ± 130 µg/mL; solubility at 24 h (physchem; organic solvent or mixture, Acetone): 9460 ± 1260 µg/mL (≈ 23 mM); solubility at 24 h (physchem; organic solvent or mixture, Methanol): 9480 ± 1010 µg/mL (≈ 23.1 mM)
